Measured values as given in US20130053434A1, “IRREVERSIBLE INHIBITORS USEFUL FOR THE TREATMENT OF KINASE-RELATED PATHOLOGIES” (CENTRE NATIONAL DE LA RECHERCHE SCIENTIFIQUE, priority 2009, published 2013).

What was measured:
MKNK1 = molecular target: T1, MKNK1 (Homo sapiens, UniProt Q9BUB5); assay: panel of 402 kinases: MKNK1; assay type: binding; conditions: read-out: residual activity relatively to control
T1 construct: purchased KinomeScan
Method: (§1) Two representative library members (1afh and 1bgi) were then evaluated in a larger panel of kinases (402) using the technology described by Lockhart et al. (M. A. Fabian, et al., Nat. Biotechnol. 2005, 23, 329-336; M. W. Karaman, et al., Nat. Biotechnol. 2008, 26, 127-132). In this panel, 31 kinases out of the 46 kinases bioinformatically identified by Santi and coworkers are present along with numerous other kinases bearing a cysteine residue at other positions within the ATP-binding pocket (J. Zhang, P. L. Yang, N. S. Gray, Nat. Rev. Cancer 2009, 9, 28-39).
(§2) The selectivity profile was measure using the KinomeScan™ technology (http://www.kinomescan.com/) based on active-site dependent competition binding assay (Karaman, M. W., et al. (2008) Nat. Biotechnol. 26, 127-32; Fabian, M. A., et al. (2005) Nat. Biotechnol. 23, 329-36). Compounds 3 and 5 were profiled against a panel of 50 kinases including 42 kinases from the group of 48 kinases predicted by Santi et al. (Schirmer, A., et al. (2006) Proc. Natl. Acad. Sci. USA 103, 4234-9) to be targeted by hypothemycin and 5 mutants of FLT3 as well as 3 mutants of KIT. Both compounds were assayed at 1 μM. The results are expressed as a percentage of signal between a negative (DMSO) and positive (know binder) control [(test compound−positive control)/([…])×100].

KIT = KIT (Homo sapiens, UniProt P10721); assay: panel of 402 kinases: KIT; assay type: binding; conditions: read-out: residual activity relatively to control
Chain of KIT (P10721 26-976): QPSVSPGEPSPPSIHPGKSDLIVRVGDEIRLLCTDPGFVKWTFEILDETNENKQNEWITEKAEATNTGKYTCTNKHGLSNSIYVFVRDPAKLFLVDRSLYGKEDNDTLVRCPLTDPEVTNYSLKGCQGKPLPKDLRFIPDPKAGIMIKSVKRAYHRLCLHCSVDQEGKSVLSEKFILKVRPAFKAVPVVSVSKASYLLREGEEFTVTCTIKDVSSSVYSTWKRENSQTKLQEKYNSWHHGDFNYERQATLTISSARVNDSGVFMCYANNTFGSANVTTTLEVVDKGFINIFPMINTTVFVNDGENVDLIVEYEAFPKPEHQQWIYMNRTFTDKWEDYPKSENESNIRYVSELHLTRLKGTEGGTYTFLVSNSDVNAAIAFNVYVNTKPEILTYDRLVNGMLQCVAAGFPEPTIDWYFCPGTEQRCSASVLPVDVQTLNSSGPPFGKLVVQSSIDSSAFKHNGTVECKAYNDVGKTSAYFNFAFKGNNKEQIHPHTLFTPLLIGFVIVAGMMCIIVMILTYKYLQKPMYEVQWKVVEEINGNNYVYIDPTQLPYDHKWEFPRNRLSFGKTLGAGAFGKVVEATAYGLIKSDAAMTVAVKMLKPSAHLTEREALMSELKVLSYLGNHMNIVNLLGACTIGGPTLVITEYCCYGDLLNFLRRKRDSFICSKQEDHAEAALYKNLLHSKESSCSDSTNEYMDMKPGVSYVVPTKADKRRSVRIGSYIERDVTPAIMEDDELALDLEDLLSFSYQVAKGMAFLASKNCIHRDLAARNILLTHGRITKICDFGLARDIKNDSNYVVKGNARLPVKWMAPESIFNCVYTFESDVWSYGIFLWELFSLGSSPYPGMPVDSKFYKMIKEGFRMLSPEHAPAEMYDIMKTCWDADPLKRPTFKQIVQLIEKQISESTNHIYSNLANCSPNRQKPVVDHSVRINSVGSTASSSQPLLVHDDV
Method: as §1, §2

Flt1 = molecular target: T2, Flt1 (Homo sapiens, UniProt P17948); assay: panel of 402 kinases: Flt1; assay type: binding
T2 construct: purchased KinomeScan
T2 sequence (P17948 27-1338): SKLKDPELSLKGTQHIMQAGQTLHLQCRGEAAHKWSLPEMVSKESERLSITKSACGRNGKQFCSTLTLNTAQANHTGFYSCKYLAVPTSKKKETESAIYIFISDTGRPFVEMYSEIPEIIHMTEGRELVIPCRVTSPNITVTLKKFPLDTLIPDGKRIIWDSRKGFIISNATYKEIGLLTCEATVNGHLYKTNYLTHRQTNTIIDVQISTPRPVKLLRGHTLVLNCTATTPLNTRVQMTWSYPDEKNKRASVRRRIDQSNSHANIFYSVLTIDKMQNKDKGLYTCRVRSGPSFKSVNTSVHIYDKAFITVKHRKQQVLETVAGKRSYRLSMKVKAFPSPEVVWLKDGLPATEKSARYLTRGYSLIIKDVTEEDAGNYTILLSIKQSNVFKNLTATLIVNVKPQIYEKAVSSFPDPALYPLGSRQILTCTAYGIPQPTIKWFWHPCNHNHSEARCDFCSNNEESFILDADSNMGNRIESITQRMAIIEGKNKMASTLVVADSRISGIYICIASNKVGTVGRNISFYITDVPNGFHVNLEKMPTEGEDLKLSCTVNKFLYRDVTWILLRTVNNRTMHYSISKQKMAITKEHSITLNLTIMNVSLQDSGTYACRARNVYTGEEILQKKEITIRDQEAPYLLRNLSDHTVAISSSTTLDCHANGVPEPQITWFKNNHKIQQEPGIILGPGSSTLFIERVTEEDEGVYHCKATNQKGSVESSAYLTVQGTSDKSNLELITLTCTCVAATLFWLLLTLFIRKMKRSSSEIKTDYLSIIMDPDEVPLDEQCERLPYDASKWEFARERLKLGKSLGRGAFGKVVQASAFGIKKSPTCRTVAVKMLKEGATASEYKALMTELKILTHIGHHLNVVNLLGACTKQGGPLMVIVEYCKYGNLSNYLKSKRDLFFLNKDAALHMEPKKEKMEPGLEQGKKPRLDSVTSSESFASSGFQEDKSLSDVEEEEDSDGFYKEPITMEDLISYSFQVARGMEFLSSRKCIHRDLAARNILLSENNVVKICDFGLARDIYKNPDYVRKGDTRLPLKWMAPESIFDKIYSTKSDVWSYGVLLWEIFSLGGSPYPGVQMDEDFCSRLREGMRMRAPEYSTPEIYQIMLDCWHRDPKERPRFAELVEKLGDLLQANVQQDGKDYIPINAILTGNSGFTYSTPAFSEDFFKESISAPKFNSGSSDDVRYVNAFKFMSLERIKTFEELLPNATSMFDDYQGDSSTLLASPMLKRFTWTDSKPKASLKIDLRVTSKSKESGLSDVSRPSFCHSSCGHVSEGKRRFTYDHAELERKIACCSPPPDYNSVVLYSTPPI
Method: as §1, §2

Flt3 N841L = assay: kinase mutants: Flt3 N841L; assay type: binding; conditions: gain of function mutation
Method: as §1
(§3) The two compounds were also evaluated against a series of mutations of Flt3 and KIT. It is known that several mutation in Flt3 lead to a gain of function or constitutive activity.

TGFR2 = molecular target: T3, TGFR2 (Homo sapiens, UniProt P37173); assay: panel of 402 kinases: TGFR2; assay type: binding; conditions: read-out: residual activity relatively to control
T3 construct: purchased KinomeScan
Method: as §1, §2

Flt3 D835Y = Flt3 D835Y (Homo sapiens, UniProt P36888, D835Y); assay: kinase mutants: Flt3 D835Y; assay type: binding; conditions: gain of function mutation
Method: as §1, §3

MEK2 = molecular target: T4, MEK2 (Homo sapiens, UniProt P36507); assay: panel of 402 kinases: MEK2; assay type: binding; conditions: read-out: residual activity relatively to control
T4 construct: purchased KinomeScan
Method: as §1, §2

GAK = molecular target: T5, GAK (Homo sapiens, UniProt O14976); assay: panel of 402 kinases: GAK; assay type: binding; conditions: read-out: residual activity relatively to control
T5 construct: purchased KinomeScan
Method: as §1, §2

GSK3β = GSK3β (Homo sapiens, UniProt P49841); assay: panel of 402 kinases: GSK3β; assay type: binding; conditions: 1 μM
Chain of GSK3β (P49841 whole entry, species assumed): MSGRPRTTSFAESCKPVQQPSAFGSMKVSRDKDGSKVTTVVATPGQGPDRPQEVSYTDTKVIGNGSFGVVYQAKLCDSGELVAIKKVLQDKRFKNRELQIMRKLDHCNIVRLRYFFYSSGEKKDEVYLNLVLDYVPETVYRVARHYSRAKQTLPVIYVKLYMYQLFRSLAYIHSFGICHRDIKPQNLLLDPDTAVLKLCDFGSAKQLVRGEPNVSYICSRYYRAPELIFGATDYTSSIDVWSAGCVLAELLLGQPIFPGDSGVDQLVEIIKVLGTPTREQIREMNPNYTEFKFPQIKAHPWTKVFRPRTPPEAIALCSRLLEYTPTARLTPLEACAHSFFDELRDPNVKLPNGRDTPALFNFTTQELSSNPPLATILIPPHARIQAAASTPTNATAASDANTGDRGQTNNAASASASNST
Method: as §1, §2

KIT V559D, V654A = KIT V559D, V654A (Homo sapiens, UniProt P10721, V559D/V654A); assay: kinase mutants: KIT V559D, V654A; assay type: binding; conditions: dual mutation conferring resistance to imatinib
Chain of KIT V559D, V654A (P10721 26-976 V559D/V654A): as the sequence (P10721 26-976) above, with V534D, V629A counted along it
Method: as §1, §3

CDKL5 = molecular target: T6, CDKL5 (Homo sapiens, UniProt O76039); assay: panel of 402 kinases: CDKL5; assay type: binding; conditions: 1 μM
T6 construct: purchased KinomeScan
Method: as §1, §2

TAK1 = molecular target: T7, TAK1 (Homo sapiens, UniProt O43318); assay: panel of 402 kinases: TAK1; assay type: binding; conditions: read-out: residual activity relatively to control
T7 construct: purchased KinomeScan
Method: as §1, §2

panel of kinases (402) = assay: larger panel of kinases (402), competition binding, whole panel; conditions: 1 μM; for number of kinases out of 31 with more than 50% residual activity: 31 of the 46 predicted kinases
Method: as §1, §2

Flt3 K663Q = Flt3 K663Q (Homo sapiens, UniProt P36888, K663Q); assay: kinase mutants: Flt3 K663Q; assay type: binding; conditions: gain of function mutation
Method: as §1, §3

KIT V559D = KIT V559D (Homo sapiens, UniProt P10721, V559D); assay: kinase mutants: KIT V559D; assay type: binding; conditions: gain of function mutation
Chain of KIT V559D (P10721 26-976 V559D): as the sequence (P10721 26-976) above, with V534D counted along it
Method: as §1, §3

Flt3 = molecular target: T8, Flt3 (Homo sapiens, UniProt P36888); assay: panel of 402 kinases: Flt3; assay type: binding; conditions: read-out: residual activity relatively to control
T8 construct: purchased KinomeScan
Method: as §1, §2

PDGFRβ = molecular target: T9, PDGFRβ (Homo sapiens, UniProt P09619); assay: panel of 402 kinases: PDGFRβ; assay type: binding
T9 construct: purchased KinomeScan
T9 sequence (P09619 33-1106): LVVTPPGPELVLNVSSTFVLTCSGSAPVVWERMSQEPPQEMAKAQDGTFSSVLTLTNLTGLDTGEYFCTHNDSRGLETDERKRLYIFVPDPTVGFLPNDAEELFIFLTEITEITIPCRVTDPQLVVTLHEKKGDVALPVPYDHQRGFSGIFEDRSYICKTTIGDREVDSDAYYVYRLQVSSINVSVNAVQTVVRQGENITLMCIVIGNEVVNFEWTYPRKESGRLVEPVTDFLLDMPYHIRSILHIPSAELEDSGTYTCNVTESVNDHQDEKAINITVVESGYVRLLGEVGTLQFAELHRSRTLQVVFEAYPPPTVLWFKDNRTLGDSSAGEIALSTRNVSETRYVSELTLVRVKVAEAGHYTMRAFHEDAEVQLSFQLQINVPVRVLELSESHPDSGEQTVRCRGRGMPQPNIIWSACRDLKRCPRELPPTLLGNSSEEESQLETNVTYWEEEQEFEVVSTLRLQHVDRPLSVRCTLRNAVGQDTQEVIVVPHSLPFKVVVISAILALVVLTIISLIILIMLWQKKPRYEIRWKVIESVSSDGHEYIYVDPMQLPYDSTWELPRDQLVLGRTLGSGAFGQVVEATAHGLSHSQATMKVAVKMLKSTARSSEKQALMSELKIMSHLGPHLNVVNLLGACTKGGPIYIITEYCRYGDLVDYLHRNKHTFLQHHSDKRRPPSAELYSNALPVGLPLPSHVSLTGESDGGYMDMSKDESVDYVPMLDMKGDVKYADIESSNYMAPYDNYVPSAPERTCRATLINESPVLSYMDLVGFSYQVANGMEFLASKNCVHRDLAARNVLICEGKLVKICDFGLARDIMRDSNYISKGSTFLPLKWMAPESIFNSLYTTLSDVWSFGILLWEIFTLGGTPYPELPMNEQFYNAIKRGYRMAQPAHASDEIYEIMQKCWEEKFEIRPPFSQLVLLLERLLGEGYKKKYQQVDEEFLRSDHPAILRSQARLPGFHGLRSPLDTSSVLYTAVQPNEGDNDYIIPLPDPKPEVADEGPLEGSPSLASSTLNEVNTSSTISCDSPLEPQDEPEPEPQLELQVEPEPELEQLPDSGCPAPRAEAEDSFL
Method: as §1, §2

NLK = molecular target: T10, NLK (Homo sapiens, UniProt Q9UBE8); assay: panel of 402 kinases: NLK; assay type: binding; conditions: 1 μM
T10 construct: purchased KinomeScan
T10 sequence (Q9UBE8 whole entry): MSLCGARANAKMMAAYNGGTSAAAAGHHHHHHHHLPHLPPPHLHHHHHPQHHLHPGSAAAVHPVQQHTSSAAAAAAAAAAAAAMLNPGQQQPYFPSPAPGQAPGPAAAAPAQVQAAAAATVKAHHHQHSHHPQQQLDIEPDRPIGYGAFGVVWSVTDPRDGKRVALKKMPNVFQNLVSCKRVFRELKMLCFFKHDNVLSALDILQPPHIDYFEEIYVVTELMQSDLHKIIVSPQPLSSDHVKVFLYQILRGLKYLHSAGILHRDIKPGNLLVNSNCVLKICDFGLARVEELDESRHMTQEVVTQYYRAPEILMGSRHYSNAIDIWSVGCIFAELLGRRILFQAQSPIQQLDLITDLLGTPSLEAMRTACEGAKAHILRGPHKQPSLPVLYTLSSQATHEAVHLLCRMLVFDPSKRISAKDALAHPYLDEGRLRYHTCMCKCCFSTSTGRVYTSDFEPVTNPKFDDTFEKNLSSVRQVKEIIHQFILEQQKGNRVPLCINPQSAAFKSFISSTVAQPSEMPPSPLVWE
Method: as §1, §2

PRP4 = molecular target: T11, PRP4 (Homo sapiens, UniProt Q13523); assay: panel of 402 kinases: PRP4; assay type: binding; conditions: 1 μM
T11 construct: purchased KinomeScan
Method: as §1, §2

NIK = molecular target: T12, NIK (Homo sapiens, UniProt Q99558); assay: panel of 402 kinases: NIK; assay type: binding; conditions: 1 μM
T12 construct: purchased KinomeScan
Method: as §1, §2

MKNK2 = molecular target: T13, MKNK2 (Homo sapiens, UniProt Q9HBH9); assay: panel of 402 kinases: MKNK2; assay type: binding; conditions: read-out: residual activity relatively to control
T13 construct: purchased KinomeScan
T13 sequence (Q9HBH9 whole entry): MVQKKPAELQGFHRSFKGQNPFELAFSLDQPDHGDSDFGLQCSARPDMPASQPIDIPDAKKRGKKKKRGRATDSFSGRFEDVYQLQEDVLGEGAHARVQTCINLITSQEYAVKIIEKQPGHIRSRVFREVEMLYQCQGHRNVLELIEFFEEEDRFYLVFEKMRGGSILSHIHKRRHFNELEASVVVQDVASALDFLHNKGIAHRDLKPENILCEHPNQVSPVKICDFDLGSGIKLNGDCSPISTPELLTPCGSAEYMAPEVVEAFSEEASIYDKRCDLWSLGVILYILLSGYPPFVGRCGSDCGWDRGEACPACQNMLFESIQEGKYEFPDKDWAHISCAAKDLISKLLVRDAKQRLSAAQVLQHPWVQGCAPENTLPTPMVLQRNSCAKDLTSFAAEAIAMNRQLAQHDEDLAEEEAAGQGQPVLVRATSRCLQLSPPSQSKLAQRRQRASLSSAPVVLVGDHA
Method: as §1, §2

KIT L576P = KIT L576P (Homo sapiens, UniProt P10721, L576P); assay: kinase mutants: KIT L576P; assay type: binding; conditions: gain of function mutation
Chain of KIT L576P (P10721 26-976 L576P): as the sequence (P10721 26-976) above, with L551P counted along it
Method: as §1, §3

MEK1 = MEK1 (Homo sapiens, UniProt Q02750); assay: panel of 402 kinases: MEK1; assay type: binding; conditions: read-out: residual activity relatively to control
Method: as §1, §2

ERK1 = molecular target: T14, ERK1 (Homo sapiens, UniProt P27361); assay: panel of 402 kinases: ERK1; assay type: binding; conditions: 1 μM
T14 construct: purchased KinomeScan
Method: as §1, §2

KIT D816V = KIT D816V (Homo sapiens, UniProt P10721, D816V); assay: kinase mutants: KIT D816V; assay type: binding; conditions: gain of function mutation
Chain of KIT D816V (P10721 26-976 D816V): as the sequence (P10721 26-976) above, with D791V counted along it
Method: as §1, §3

PDGFRα = molecular target: T15, PDGFRα (Homo sapiens, UniProt P16234); assay: panel of 402 kinases: PDGFRα; assay type: binding; conditions: read-out: residual activity relatively to control
T15 construct: purchased KinomeScan
Method: as §1, §2

KIT V559D, T670I = KIT V559D, T670I (Homo sapiens, UniProt P10721, T670I/V559D); assay: kinase mutants: KIT V559D, T670I; assay type: binding; conditions: dual mutation conferring resistance to imatinib
Chain of KIT V559D, T670I (P10721 26-976 V559D/T670I): as the sequence (P10721 26-976) above, with V534D, T645I counted along it
Method: as §1, §3

MEK4 = molecular target: T16, MEK4 (Homo sapiens, UniProt P45985); assay: panel of 402 kinases: MEK4; assay type: binding; conditions: read-out: residual activity relatively to control
T16 construct: purchased KinomeScan
Method: as §1, §2

[1] = in vivo; cited from earlier work
[2] = tested on: orthotopically implanted RENCA-LN cells; assay: orthotopic murine renal cell carcinoma (RENCA) model, in vivo efficacy; conditions: untreated group had two animals; groups of 12
Method: RENCA-LN cells were obtained and cultured as described above. Sixty female BALB/c mice of 5 to 6 weeks were orthotopically implanted RENCA-LN cells into the left kidney (4×10^5 cells in 25 μl aliquots into the subcapsular space through a flank incision, Day 0). The mice were randomly divided into 5 groups of 12 mice each. On day 2, therapy was initiated. Animals in the vehicle control group (group 1) received 10 ml/kg Vehicle (PBS w/o Ca/Mg, 10% DMSO, 40% PEG-300) i.p. once daily until day 19. Animals of positive control group (group 2) received 40 mg/kg Sunitinib (Sutent®) p.o. once daily until day 20. Animals of treatment group 3 and 4 received 20 mg/kg of 3 once daily and every other day respectively (i.p.). Animals of treatment group 5 received 20 mg/kg of 5 once daily (i.p.). Due to partial weight loss, therapy in Groups 3 and 5 was suspended on days 11 and 12 and stopped on day 17. On day 20, the study was terminated and a necropsy performed. All animals were weighted, anaesthetised by isoflurane and killed by exsanguination. Two animals in group 1 were found dead on day 19 and 1 animal in group 3 and 5 on day 11 and 9 respectively. At necropsy, primary tumor weight and volume, lung weight and number of lung metastases were determined. Primary tumor tissues were collected and divided into two parts. One part of each tumor was snap-frozen in liquid nitrogen and stored at −80° C. whereas the other part was analyzed via ex vivo bioluminescence imaging. During the course of the study, the growth of the orthotopically implanted RENCA tumors was monitored on days 7, 14 and 19 using in vivo bioluminescence imaging. For this purpose, luciferin was injected intraperitoneally (i.p.) into the mice and light emission was measured post injection (10 min) using a NightOWL LB 981 bioluminescence imaging system (Berthold Technologies, Germany). The migration of RENCA tumor cells into the lung (metastasis) was analyzed post necropsy by counting nodules and using the luciferase assay. For this purpose, lungs were collected, homogenized, and assayed for luciferase activity using the kit from Promega (E1501) according to the manufacturer's instructions. Protein concentrations were determined using a Bradford assay and used to normalize luciferase activities (except for the primary tumor). A histological examination of the tumor vasculature was performed. For this purpose, cryosections of primary tumor tissues (thickness=5-10 μm) from the snap-frozen portion of the organ and blood vessels were visualized by immunohistochemical staining for CD 31 (PECAM-1; PharMingen, San Diego, Calif.). […] Statistical analysis of efficacy data was done using the Mann Whitney test.

[3] = read-out: residual activity relatively to control

## C[C@H]1C/C=C\C(=O)[C@@H](O)[C@@H](O)CCCc2cc(O)cc(O)c2C(=O)O1 [1afh]
MKNK1
  remaining activity at 1 µM: < 10%
KIT
  remaining activity at 1 µM: < 10%
Flt1; [3]
  remaining activity at 1 µM: < 10%
Flt3 N841L
  sensitivity of mutant to the inhibitors: remained equally sensitive
TGFR2
  remaining activity at 1 µM: < 10%
Flt3 D835Y
  activity against mutant compared with wild type: more active than against the wild type
MEK2
  remaining activity at 1 µM: < 10%
GAK
  remaining activity at 1 µM: < 10%
GSK3β
  inhibition: not inhibited
KIT V559D, V654A
  activity against dual mutation: not active
CDKL5
  inhibition: not inhibited
TAK1
  remaining activity at 1 µM: < 10%
Panel of kinases (402)
  number of kinases outside of the set of 46 predicted kinases showing significant inhibition (STK36 and PRKD2): two
  number of kinases out of 31 with more than 50% residual activity: 11
Flt3 K663Q
  sensitivity of mutant to the inhibitors: remained equally sensitive
KIT V559D
  activity against mutant: retained their activity
Flt3
  remaining activity at 1 µM: < 10%
PDGFRβ; [3]
  remaining activity at 1 µM: < 10%
NLK
  inhibition: not inhibited
PRP4
  inhibition: not inhibited
NIK
  inhibition: not inhibited
MKNK2
  remaining activity at 1 µM: < 10%
KIT L576P
  activity against mutant: retained their activity
MEK1
  remaining activity at 1 µM: < 10%
ERK1
  inhibition: not inhibited
KIT D816V
  activity against mutant: retained their activity
PDGFRα
  remaining activity at 1 µM: < 10%
KIT V559D, T670I
  activity against dual mutation: not active

## O=C1OCC/C=C\C(=O)[C@@H](O)[C@@H](O)[C@H](O)COc2cc(O)cc(O)c21 [1bgi]
Flt1; 1 μM
  activity compared to 1afh: ten times less active
Flt3 N841L
  sensitivity of mutant to the inhibitors: remained equally sensitive
Flt3 D835Y
  activity against mutant compared with wild type: more active than against the wild type
KIT V559D, V654A
  activity against dual mutation: not active
Panel of kinases (402)
  number of kinases outside of the set of 46 predicted kinases showing significant inhibition (STK36 and PRKD2): two
  number of kinases out of 31 with more than 50% residual activity: 19
Flt3 K663Q
  sensitivity of mutant to the inhibitors: remained equally sensitive
MEK4
  remaining activity at 1 µM: 1%
KIT V559D
  activity against mutant: retained their activity
PDGFRβ; 1 μM
  activity compared to 1afh: ten times less active
KIT L576P
  activity against mutant: retained their activity
KIT D816V
  activity against mutant: retained their activity
KIT V559D, T670I
  activity against dual mutation: not active

## CCOc1cc2ncc(C#N)c(Nc3ccc(F)c(Cl)c3)c2cc1NC(=O)/C=C/CN(C)C [EKB-569]
[1]
  safety in phase I clinical trial: safe

## CCN(CC)CCNC(=O)c1c(C)[nH]c(/C=C2\C(=O)Nc3ccc(F)cc32)c1C [sunitinib, reference compound]
[2]
  animals having a high count of lung metastatic nodules: 5
